# Data: US9833497B2, “Human originated EGF domain proteins and use of the same” (CHENGDU SOURCEBIO LIMITED-LIABILITY COMPANY, priority 2013, dated 2017)
# Legend:
# Format in all cases: cell-based
# E. coli DH5α = assay: Antibacterial activity: MIC and growth curve against E. coli DH5α in 96-well plate; details: minimal inhibitory concentration against E. coli DH5α; 96-well plate, 5×10^5 CFU/mL, 37° C., judged after 8 h
# How it was run: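 MIC taken as lowest protein level with no bacterial growth, tracked by A600 every 30 min during 37 °C, 175 rpm culture. Two-fold protein series 50-12.5 μg/mL final, triplicate wells, against 5×10^5 CFU/mL of LB-washed mid-log cells.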
# E. coli BL21 = assay: MIC against Gram-negative bacteria: E. coli BL21; details: 5×10^5 CFU/mL
# How it was run: (§1)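 LB broth cultures at McFarland 0.5, spun down, resuspended, diluted to 5×10^5 CFU/mL final. Two-fold serial dilutions of purified human EGF domain proteins, triplicate. 37° C, 175 rpm shaking. Endpoint: no visible growth.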
# Pseudomonas aeruginosa = assay: MIC against Gram-negative bacteria: Pseudomonas aeruginosa; details: 5×10^5 CFU/mL
# How it was run: as §1
# Klebsiella pneumonia = assay: MIC against Gram-negative bacteria: Klebsiella pneumonia; details: 5×10^5 CFU/mL
# How it was run: as §1
# Enterobacter cloacae = assay: MIC against Gram-negative bacteria: Enterobacter cloacae; details: 5×10^5 CFU/mL
# How it was run: as §1
# Aeromonas hydrophila = assay: MIC against Gram-negative bacteria: Aeromonas hydrophila; details: 5×10^5 CFU/mL
# How it was run: as §1
# Citrobacter diversus = assay: MIC against Gram-negative bacteria: Citrobacter diversus; details: 5×10^5 CFU/mL
# How it was run: as §1
# Moraxella catarrhalis = assay: MIC against Gram-negative bacteria: Moraxella catarrhalis; details: 5×10^5 CFU/mL
# How it was run: as §1
# Proteus mirabilis = assay: MIC against Gram-negative bacteria: Proteus mirabilis; details: 5×10^5 CFU/mL
# How it was run: as §1
# Proteus vulgaris = assay: MIC against Gram-negative bacteria: Proteus vulgaris; details: 5×10^5 CFU/mL
# How it was run: as §1
# Serratia marcescens = assay: MIC against Gram-negative bacteria: Serratia marcescens; details: 5×10^5 CFU/mL
# How it was run: as §1
# [1] = E. coli BL21, 96-well plate, 37° C., 10 h
# [2] = Pseudomonas aeruginosa, 96-well plate, 37° C., 10 h
# [3] = Klebsiella pneumonia, 96-well plate, 37° C., 10 h
# [4] = Enterobacter cloacae, 96-well plate, 37° C., 10 h
# [5] = Aeromonas hydrophila, 96-well plate, 37° C., 10 h
# [6] = Citrobacter diversus, 96-well plate, 37° C., 10 h
# [7] = Moraxella catarrhalis, 96-well plate, 37° C., 10 h
# [8] = Proteus mirabilis, 96-well plate, 37° C., 10 h
# [9] = Proteus vulgaris, 96-well plate, 37° C., 10 h
# [10] = Serratia marcescens, 96-well plate, 37° C., 10 h
# [11] = E. coli BL21, 10 h cultivation at 37° C.
# [12] = P. aeruginosa, 10 h cultivation at 37° C.
# [13] = K. pneumonia, 10 h cultivation at 37° C.
# [14] = E. cloacae, 10 h cultivation at 37° C.
# [15] = A. hydrophila, 10 h cultivation at 37° C.
# [16] = C. diversus, 10 h cultivation at 37° C.
# [17] = M. catarrhalis, 10 h cultivation at 37° C.
# [18] = P. mirabilis, 10 h cultivation at 37° C.
# [19] = P. vulgaris, 10 h cultivation at 37° C.
# [20] = S. marcescens, 10 h cultivation at 37° C.
substance,measurement,setting,value
PRT114 (PKYGCNFNNGGCHQDCFEGGDGSFLCGCRPGFRLLDDLVTCA; listed as Homo sapiens),MIC,E. coli DH5α,12.5 µg/mL
same,MIC (μg/mL) E. coli BL21,E. coli BL21; [1],12.5 µg/mL
same,MIC (μg/mL) P. aeruginosa,Pseudomonas aeruginosa; [2],12.5 µg/mL
same,MIC (μg/mL) K. pneumonia,Klebsiella pneumonia; [3],25 µg/mL
same,MIC (μg/mL) E. cloacae,Enterobacter cloacae; [4],12.5 µg/mL
same,MIC (μg/mL) A. hydrophila,Aeromonas hydrophila; [5],25 µg/mL
same,MIC (μg/mL) C. diversus,Citrobacter diversus; [6],12.5 µg/mL
same,MIC (μg/mL) M. catarrhalis,Moraxella catarrhalis; [7],12.5 µg/mL
same,MIC (μg/mL) P. mirabilis,Proteus mirabilis; [8],12.5 µg/mL
same,MIC (μg/mL) P. vulgaris,Proteus vulgaris; [9],12.5 µg/mL
same,MIC (μg/mL) S. marcescens,Serratia marcescens; [10],12.5 µg/mL
PRT1267 (CNHGNGGCQHSCDDTADGPECSCHPQYKMHTDGRSC; listed as Homo sapiens),MIC,E. coli DH5α,12.5 µg/mL
same,MIC against E. coli BL21,E. coli BL21; [1],25 µg/mL
same,MIC against P. aeruginosa,Pseudomonas aeruginosa; [2],50 µg/mL
same,MIC against K. pneumonia,Klebsiella pneumonia; [3],25 µg/mL
same,MIC against E. cloacae,Enterobacter cloacae; [4],12.5 µg/mL
same,MIC against A. hydrophila,Aeromonas hydrophila; [5],50 µg/mL
same,MIC against C. diversus,Citrobacter diversus; [6],12.5 µg/mL
same,MIC against M. catarrhalis,Moraxella catarrhalis; [7],25 µg/mL
same,MIC against P. mirabilis,Proteus mirabilis; [8],50 µg/mL
same,MIC against P. vulgaris,Proteus vulgaris; [9],25 µg/mL
same,MIC against S. marcescens,Serratia marcescens; [10],12.5 µg/mL
PRT794 (SSRCGCKNDAVCSPVDGSCTCKAGWHGVDCS; listed as Homo sapiens),MIC,E. coli DH5α,50 µg/mL
same,MIC (μg/mL) E. coli BL21,E. coli BL21; [11],12.5 µg/mL
same,MIC (μg/mL) P. aeruginosa,Pseudomonas aeruginosa; [12],50 µg/mL
same,MIC (μg/mL) K. pneumonia,Klebsiella pneumonia; [13],12.5 µg/mL
same,MIC (μg/mL) E. cloacae,Enterobacter cloacae; [14],25 µg/mL
same,MIC (μg/mL) A. hydrophila,Aeromonas hydrophila; [15],50 µg/mL
same,MIC (μg/mL) C. diversus,Citrobacter diversus; [16],25 µg/mL
same,MIC (μg/mL) M. catarrhalis,Moraxella catarrhalis; [17],12.5 µg/mL
same,MIC (μg/mL) P. mirabilis,Proteus mirabilis; [18],25 µg/mL
same,MIC (μg/mL) P. vulgaris,Proteus vulgaris; [19],50 µg/mL
same,MIC (μg/mL) S. marcescens,Serratia marcescens; [20],12.5 µg/mL
PRT755 (AVDYCASENHGCEHECVNADGSYLCQCHEGFALNPDKKTCT; listed as Homo sapiens),MIC,E. coli DH5α,12.5 µg/mL
same,MIC (μg/mL) E. coli BL21,E. coli BL21; [11],50 µg/mL
same,MIC (μg/mL) P. aeruginosa,Pseudomonas aeruginosa; [12],12.5 µg/mL
same,MIC (μg/mL) K. pneumonia,Klebsiella pneumonia; [13],50 µg/mL
same,MIC (μg/mL) E. cloacae,Enterobacter cloacae; [14],12.5 µg/mL
same,MIC (μg/mL) A. hydrophila,Aeromonas hydrophila; [15],50 µg/mL
same,MIC (μg/mL) C. diversus,Citrobacter diversus; [16],12.5 µg/mL
same,MIC (μg/mL) M. catarrhalis,Moraxella catarrhalis; [17],50 µg/mL
same,MIC (μg/mL) P. mirabilis,Proteus mirabilis; [18],12.5 µg/mL
same,MIC (μg/mL) P. vulgaris,Proteus vulgaris; [19],12.5 µg/mL
same,MIC (μg/mL) S. marcescens,Serratia marcescens; [20],25 µg/mL
PRT516 (CNCSGLGSKNEDPCFGPCICKENVEGGDCSRCKSGFFNLQEDNWKGCDE; listed as Homo sapiens),MIC,E. coli DH5α,12.5 µg/mL
same,MIC against E. coli BL21,"E. coli BL21; 96-well plate, 37° C., 10 h",50 µg/mL
same,MIC against P. aeruginosa,"Pseudomonas aeruginosa; 96-well plate, 37° C., 10 h",12.5 µg/mL
same,MIC against K. pneumonia,"Klebsiella pneumonia; 96-well plate, 37° C., 10 h",50 µg/mL
same,MIC against E. cloacae,"Enterobacter cloacae; 96-well plate, 37° C., 10 h",12.5 µg/mL
same,MIC against A. hydrophila,"Aeromonas hydrophila; 96-well plate, 37° C., 10 h",25 µg/mL
same,MIC against C. diversus,"Citrobacter diversus; 96-well plate, 37° C., 10 h",50 µg/mL
same,MIC against M. catarrhalis,"Moraxella catarrhalis; 96-well plate, 37° C., 10 h",25 µg/mL
same,MIC against P. mirabilis,"Proteus mirabilis; 96-well plate, 37° C., 10 h",12.5 µg/mL
same,MIC against P. vulgaris,"Proteus vulgaris; 96-well plate, 37° C., 10 h",25 µg/mL
same,MIC against S. marcescens,"Serratia marcescens; 96-well plate, 37° C., 10 h",50 µg/mL
